# Numbers after ± are expanded uncertainties.
# Conditions: Crystal; for mass density: 298 K, 101.33 kPa, Pycnometric method; for Normal melting temperature: DTA
mass density,Normal melting temperature,Structure (SMILES)
1246 ± 2 kg/m3,38.4 ± 0.5 °C,Clc1ccc2ccccc2n1 [2-chloroquinoline]
1251 ± 2 kg/m3,35 ± 0.5 °C,Clc1ccnc2ccccc12 [4-chloroquinoline]
–,46 ± 0.5 °C,Clc1ccc2ncccc2c1 [6-chloroquinoline]
–,92.4 ± 0.5 °C,"Clc1ccc2c(Cl)ccnc2c1 [4,7-dichloroquinoline]"

# From the NIST ThermoML archive (doi:10.1016/j.jct.2005.03.011)
